Source: patent EP0013144A1, “Substituted diphenylamine derivatives, compositions and herbicidal uses thereof, and processes for their preparation” (ICI AUSTRALIA LIMITED, priority 1978, dated 1980)

Key:
Assay type in all cases: in vivo
Wheat [1] = assay: Post-emergence herbicidal activity (Example 32); design: key: 0-3 scale: 0 = 0-25% damage, 3 = 75-99% kill, 3+ = 100% kill; settings: 3 weeks after spraying
Description: (§1) Concentrated formulations of the compounds of the invention were prepared by: • a) in the case of oils and waxy solids, dissolving the compound in toluene containing 7% v/v "Teric" N13 ("Teric" is a Trade MarK and "Teric" N13, a product of ethoxylation of nonylphenol, is available from ICI Australia Limited) and 3% v/v "Kemmat" SC15B ("Kemmat" is a Trade Mark and "Kemmat" SC15B is a formulation of calcium dodecylbenzene sulfonate); or • b) in the case of crystalline solids, adding 5 parts by weight of the compound and 1 part by weight of . ''Dyapol" PT ("Dyapol" is a Trade Mark and "Dyapol" PT is an anionic suspending agent) to 94 parts by weight of an aqueous solution containing 0.25% v/v of "Teric" N8 (a product of ethoxylation of nonylphenol) and ball-milling the mixture to produce a stable suspension. The emulsifiable concentrates and suspensions were then diluted with water to give an aqueous composition of the required concentration suitable for use in the evaluation of the pre-emergence and post-emergence herbicidal activity of the compounds of the invention.
(§2) The post-emergent herbicidal activity of the compounds of the invention formulated as described in Example 30 was assessed by the following procedure.
(§3) The seeds of the test species were sown in rows 2 cm deep in soil contained in seed boxes. The monocotyledonous plants and the dicotyledonous plants were sown in separate seed boxes in duplicate. The four seed boxes were placed in a glasshouse, lightly watered with an overhead spray to initiate germination and then sub-irrigated as required for optimum plant growth. After the plants had grown to a height of about 10 to 12.5 cm one box of each of the monocotyledonous plants and the dicotyledonous plants was removed from the glasshouse and sprayed with the required quantity of a composition of the invention. After spraying the boxes were returned to the glasshouse for further 3 weeks and the effects of the treatment was visually assessed by comparison with the untreated controls. The results are presented in Table 4 where the damage to plants is rated on a scale of from 0 to 3 where 0 represents 0 to 25% damage, 3 represents 75 to 99% kill and 3+ represents 100% kill. A dash (-) means that no experiment was carried out.

Japanese millet = assay: Post-emergence herbicidal activity (Example 32); settings: 3 weeks after spraying
Description: as §1, §2, §3

Ipomea [2] = assay: Post-emergence herbicidal activity (Example 32); settings: 3 weeks after spraying
Description: as §1, §2, §3

Ryegrass [3] = assay: Post-emergence herbicidal activity (Example 32); settings: 3 weeks after spraying
Description: as §1, §2, §3

Wild Oats = assay: Post-emergence herbicidal activity (Example 32); settings: 3 weeks after spraying
Description: as §1, §2, §3

Sunflower [4] = assay: Post-emergence herbicidal activity (Example 32); settings: 3 weeks after spraying
Description: as §1, §2, §3

Mustard [5] = assay: Post-emergence herbicidal activity (Example 32); settings: 3 weeks after spraying
Description: as §1, §2, §3

Ryegrass [6] = assay: Pre-emergence herbicidal activity (Example 31); design: key: 0-3 scale: 0 = 0-25% damage, 3 = 75-99% kill, 3+ = 100% kill; settings: after three weeks
Description: as §1
(§4) The pre-emergent herbicidal activity of the compounds of the invention formulated as described in Example 30 was assessed by the following procedure.
(§5) The seeds of the test species were sown in rows 2 cm deep in soil contained in seed boxes. The monocotyledonous plants and the dicotyledonous plants were sprayed with the required quantity of a composition of the invention. Two duplicate seed Doxes were prepared in the same manner but were not sprayed with a composition of the invention and were used for comparison purposes. All the boxes were placed in a glasshouse, lightly watered with an overhead spray to initiate germination and then sub-irrigated as required for optimum plant growth. After three weeks the boxes were removed from the glasshouse and the effect of the treatment was visually assessed. The results are presented in Table 3 where the damage to plants is rated on a scale of from 0 to 3 where 0 represents from 0 to 25% damage, 3 represents 75 to 99% kill and 3+ represents 100% kill.
(§6) A dash (-) means that no experiment was carried out.

Wheat [7] = assay: Pre-emergence herbicidal activity (Example 31); design: key: 0-3 scale: 0 = 0-25% damage, 3 = 75-99% kill, 3+ = 100% kill; settings: after three weeks
Description: as §1, §4, §5, §6

Ipomea [8] = assay: Pre-emergence herbicidal activity (Example 31); settings: after three weeks
Description: as §1, §4, §5, §6

Sunflower [9] = assay: Pre-emergence herbicidal activity (Example 31); settings: after three weeks
Description: as §1, §4, §5, §6

Mustard [10] = assay: Pre-emergence herbicidal activity (Example 31); settings: after three weeks
Description: as §1, §4, §5, §6

SMILES | damage to plants, Wh (Wheat [1]; 5 kg/ha) | damage to plants, Jm (Japanese millet; 5 kg/ha) | damage to plants, Ip (Ipomea [2]; 5 kg/ha) | damage to plants, Rg (Ryegrass [3]; 5 kg/ha) | damage to plants, Ot (Wild Oats; 5 kg/ha) | damage to plants, Sf (Sunflower [4]; 5 kg/ha) | damage to plants, Ms (Mustard [5]; 5 kg/ha) | damage to plants, Wh (Wheat [1]; 1 kg/ha) | damage to plants, Jm (Japanese millet; 1 kg/ha) | damage to plants, Ip (Ipomea [2]; 1 kg/ha) | damage to plants, Rg (Ryegrass [3]; 1 kg/ha) | damage to plants, Ot (Wild Oats; 1 kg/ha) | damage to plants, Sf (Sunflower [4]; 1 kg/ha) | damage to plants, Ms (Mustard [5]; 1 kg/ha) | damage to plants, Rg (Ryegrass [6]; 1 kg/ha) | damage to plants, Rg (Ryegrass [6]; 5 kg/ha) | damage to plants, Wh (Wheat [7]; 1 kg/ha) | damage to plants, Wh (Wheat [7]; 5 kg/ha) | damage to plants, Ip (Ipomea [8]; 1 kg/ha) | damage to plants, Ip (Ipomea [8]; 5 kg/ha) | further results
COC(=O)C(C)Oc1ccc(N(C)c2ccc(C(F)(F)F)cc2)cc1 (stereo not shown) [Compound 14, Methyl 2-[4-(4-trifluoromethyl-N-methylanilino)phenoxy]-propionate] | 0 (0 represents 0 to 25% damage) | 3 (3 represents 75 to 99% kill) | 3+ (3+ represents 100% kill) | 0 (0 represents 0 to 25% damage) | 0 (0 represents 0 to 25% damage) | 2 | 3+ (3+ represents 100% kill) | – | – | – | – | – | – | – | – | – | – | – | – | – | –
COC(=O)C(C)Oc1ccc(Nc2ccc(C)cc2[N+](=O)[O-])cc1 (stereo not shown) [Compound 26] | 3 (3 represents 75 to 99% kill) | 3+ (3+ represents 100% kill) | 0 (0 represents 0 to 25% damage) | 3 (3 represents 75 to 99% kill) | 1 | 0 (0 represents 0 to 25% damage) | 0 (0 represents 0 to 25% damage) | 2 | 3 (3 represents 75 to 99% kill) | 0 (0 represents 0 to 25% damage) | 3 (3 represents 75 to 99% kill) | 1 | 0 (0 represents 0 to 25% damage) | 0 (0 represents 0 to 25% damage) | 2 | 3+ (3+ represents 100% kill) | 0 (0 represents from 0 to 25% damage) | 1 | 0 (0 represents from 0 to 25% damage) | 0 (0 represents from 0 to 25% damage) | damage to plants, Sf (Sunflower [9]; 1 kg/ha): 0 (0 represents from 0 to 25% damage); damage to plants, Sf (Sunflower [9]; 5 kg/ha): 0 (0 represents from 0 to 25% damage); damage to plants, Ms (Mustard [10]; 1 kg/ha): 0 (0 represents from 0 to 25% damage); damage to plants, Ms (Mustard [10]; 5 kg/ha): 0 (0 represents from 0 to 25% damage)
CC(Oc1ccc(N(C)c2ccc(C(F)(F)F)cc2[N+](=O)[O-])cc1)C(=O)OC1CCCCC1 (stereo not shown) [Compound 80] | 3 (3 represents 75 to 99% kill) | 3+ (3+ represents 100% kill) | 0 (0 represents 0 to 25% damage) | 3+ (3+ represents 100% kill) | 3+ (3+ represents 100% kill) | 0 (0 represents 0 to 25% damage) | 0 (0 represents 0 to 25% damage) | 1 | 3+ (3+ represents 100% kill) | 0 (0 represents 0 to 25% damage) | 3 (3 represents 75 to 99% kill) | 3+ (3+ represents 100% kill) | 0 (0 represents 0 to 25% damage) | 0 (0 represents 0 to 25% damage) | 3 (3 represents 75 to 99% kill) | 3+ (3+ represents 100% kill) | 0 (0 represents from 0 to 25% damage) | 1 | 0 (0 represents from 0 to 25% damage) | 0 (0 represents from 0 to 25% damage) | damage to plants, Sf (Sunflower [9]; 1 kg/ha): 0 (0 represents from 0 to 25% damage); damage to plants, Sf (Sunflower [9]; 5 kg/ha): 0 (0 represents from 0 to 25% damage); damage to plants, Ms (Mustard [10]; 1 kg/ha): 0 (0 represents from 0 to 25% damage); damage to plants, Ms (Mustard [10]; 5 kg/ha): 0 (0 represents from 0 to 25% damage)
